According to paper PMC7946002, “The development of novel cytochrome P450 2J2 (CYP2J2) inhibitor and the underlying interaction between inhibitor and CYP2J2” (Journal of Enzyme Inhibition and Medicinal Chemistry, 2021):

Tests used:
Human recombinant CYP2J2 [1] = target: T1, Human recombinant CYP2J2 (Homo sapiens, UniProt P51589); assay: Inhibition activity of Piperine derivatives towards CYP2J2 (BnXPI probe, IC50); format: biochemical; details: for IC50: CYP2J2 3.75 pmol/mL, BnXPI 4 μM, 30 min, triplicate, mean ± SD, read-out: Inhibitory activity (IC50) CYP2J2; for increase of inhibition activity compared with Piperine: IC50 versus Piperine
T1 construct: purchased Cypex (Scotland, UK)
T1 sequence (P51589 1-502): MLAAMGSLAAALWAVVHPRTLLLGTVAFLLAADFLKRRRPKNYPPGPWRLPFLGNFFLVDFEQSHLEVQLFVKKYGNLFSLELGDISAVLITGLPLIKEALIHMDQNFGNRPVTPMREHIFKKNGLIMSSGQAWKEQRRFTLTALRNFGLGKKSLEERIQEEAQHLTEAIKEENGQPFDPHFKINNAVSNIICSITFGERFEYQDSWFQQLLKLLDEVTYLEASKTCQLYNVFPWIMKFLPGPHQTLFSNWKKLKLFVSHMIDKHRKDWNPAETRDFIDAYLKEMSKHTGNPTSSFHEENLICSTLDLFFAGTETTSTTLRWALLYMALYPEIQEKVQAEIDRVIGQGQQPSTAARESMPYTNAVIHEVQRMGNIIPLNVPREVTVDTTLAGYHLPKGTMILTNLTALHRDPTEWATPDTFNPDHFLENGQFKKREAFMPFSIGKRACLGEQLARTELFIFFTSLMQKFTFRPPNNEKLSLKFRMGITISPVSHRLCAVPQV
Description: In our previous study, BnXPI was developed to be the first selective fluorescent probe for CYP2J2[24]. Thus, with the help of the fast and sensitive advantages of fluorescence technology, the potential inhibitory effect of 108 herbal medicines (Table S1) towards CYP2J2 was screened. In brief, in the standard incubation system (100 mM phosphoric acid buffer, pH 7.4, NADPH generate system, BnXPI and extract of herbal medicines), BnXPI was set at 4 μM, and the concentration of CYP2J2 was 0.01 nmol/mL, after the pre-incubation of BnXPI and herbal medicines (final concentration was 20 μg/mL) for 3 min, NADP^+ was added to initiate the reaction. After additional 30 min (mins) incubation, 100 μL ice acetonitrile was added to terminate the reaction and followed a 20000 g centrifugation at 4 °C, the supernatant was collected and assay on a Synergy H1 Microplate Reader (Bio-Tek). The blank solvent replaces the extract of herbal medicines was set as the control group. According to the screening method mentioned above, various concentration of Piperine derivatives were added into our standard incubation system and incubated with CYP2J2, probe BnXPI for 30 min. The concentration of CYP2J2 was set at 3.75 pmol/mL, the concentration of BnXPI was 4 μM. The control group was added blank solvent instead of the inhibitors.

Human recombinant CYP2J2 [2] = target: T1, Human recombinant CYP2J2; assay: Inhibition kinetic study towards CYP2J2 (Lineweaver-Burk and Dixon plots); format: biochemical; details: for Ki: BnXPI 0–8 μM; for inhibition type towards CYP2J2: intersection point in Lineweaver–Burk plot
Description: In order to clarify the inhibition type of compound 9a, 9k, and 9l towards CYP2J2, the inhibition kinetics were also performed. Briefly, the inhibition activity of target compounds towards the metabolism kinetic of BnPXI (0–8 μM) mediated by CYP2J2 was determinated under the different concentrations of inhibitors. At last, Lineweaver–Burk and Dixon plots were used to fit the data as previously described[25]^,[26]. The inhibition kinetic type was evaluated by determining the intersection point in the Lineweaver–Burk plots. […] (1) v=Vmax/1+Km/[S](1+[I]/Ki) (2) v=Vmax/(1+Km/[S])(1+[I]/Ki) (3) v=Vmax/(1+Km/[S]+[I]/Ki) (4) v=Vmax/Km/[S](1+[I]/Ki)+(1+[I]/αKi)

IC50 (Human recombinant CYP2J2 [1]) [nM] | Ki (Human recombinant CYP2J2 [2]) [nM] | increase of inhibition activity compared with Piperine (Human recombinant CYP2J2 [1]) | inhibition type towards CYP2J2 (Human recombinant CYP2J2 [2]) | Compound
440 ± 50 | 500 |  |  | O=C(/C=C/C=C/c1ccc2c(c1)OCO2)N1CCCCC1 [9a, (2E,4E)-5-(benzo[d][1,3]dioxol-5-yl)-1-(piperidin-1-yl)penta-2,4-dien-1-one]
4720 ± 730 |  |  |  | O=C(/C=C/C=C/c1ccc2c(c1)OCO2)NC1CC1 [9b, (2E,4E)-5-(benzo[d][1,3]dioxol-5-yl)-N-cyclopropylpenta-2,4-dienamide]
1580 ± 220 |  |  |  | O=C(/C=C/C=C/c1ccc2c(c1)OCO2)N1CCCC1 [9c, (2E,4E)-5-(benzo[d][1,3]dioxol-5-yl)-1-(pyrrolidin-1-yl)penta-2,4-dien-1-one]
9330 ± 1060 |  |  |  | O=C(/C=C/C=C/c1ccc2c(c1)OCO2)NC12CC3CC(CC(C3)C1)C2 [9d, (2E,4E)-N-((3s,5s,7s)-adamantan-1-yl)-5-(benzo[d][1,3]dioxol-5-yl)penta-2,4-dienamide]
12000 ± 1350 |  |  |  | O=C(/C=C/C=C/c1ccc2c(c1)OCO2)N1CCOCC1 [9e, (2E,4E)-5-(benzo[d][1,3]dioxol-5-yl)-1-morpholinopenta-2,4-dien-1-one]
4660 ± 560 |  |  |  | C[C@@H]1COCCN1C(=O)/C=C/C=C/c1ccc2c(c1)OCO2 [9f, (2E,4E)-5-(benzo[d][1,3]dioxol-5-yl)-1-((R)-3-methylmorpholino)penta-2,4-dien-1-one]
2250 ± 560 |  |  |  | C[C@H]1COCCN1C(=O)/C=C/C=C/c1ccc2c(c1)OCO2 [9g, (2E,4E)-5-(benzo[d][1,3]dioxol-5-yl)-1-((S)-3-methylmorpholino)penta-2,4-dien-1-one]
750 ± 80 |  |  |  | O=C(/C=C/C=C/c1ccc2c(c1)OCO2)N1CCSCC1 [9h, (2E,4E)-5-(benzo[d][1,3]dioxol-5-yl)-1-thiomorpholinopenta-2,4-dien-1-one]
1240 ± 450 |  |  |  | O=C(/C=C/C=C/c1ccc2c(c1)OCO2)N1CCS(=O)(=O)CC1 [9i, (2E,4E)-5-(benzo[d][1,3]dioxol-5-yl)-1–(1,1-dioxidothiomorpholino)penta-2,4-dien-1-one]
11800 ± 1470 |  |  |  | CN(C)CCNC(=O)/C=C/C=C/c1ccc2c(c1)OCO2 [9j, (2E,4E)-5-(benzo[d][1,3]dioxol-5-yl)-N-(2-(dimethylamino)ethyl)penta-2,4-dienamide]
40 ± 8 | 110 | about 10 folds | competitive inhibition model | CC(C)CN(CC(C)C)C(=O)/C=C/C=C/c1ccc2c(c1)OCO2 [9k, (2E,4E)-5-(benzo[d][1,3]dioxol-5-yl)-N,N-diisobutylpenta-2,4-dienamide]
50 ± 5 | 74 | about 10 folds | competitive inhibition model | O=C(/C=C/C=C/c1ccc2c(c1)OCO2)NCc1ccc(F)cc1 [9l, (2E,4E)-5-(benzo[d][1,3]dioxol-5-yl)-N-(4-fluorobenzyl)penta-2,4-dienamide]
